From the NIST ThermoML archive (doi:10.1021/acs.jced.6b00718)

Assay: xn = mol fraction of the nth substance listed
Details: 101 kPa, Liquid; for electrical conductivity: Alternating current cell with electrodes, x2 = 0.2889; for viscosity: Falling or rolling sphere viscometry; for mass density: Vibrating tube method

N#CCCCCC#N [hexanedinitrile] + CCCC[N+]1(C)CCCC1.O=S(=O)([N-]S(=O)(=O)C(F)(F)F)C(F)(F)F
Details	electrical conductivity [S/m]
291.8 K	0.495
295.2 K	0.551
299.3 K	0.62
303.9 K	0.702
313.4 K	0.9
322.2 K	1.1
332.9 K	1.37

Details	mass density [kg/m3]	viscosity [mPa·s]
293.15 K, x2 = 0	962.3	7.17
293.15 K, x2 = 0.1002	1063.5	9.85
293.15 K, x2 = 0.1996	1138	13.22
293.15 K, x2 = 0.3004	1196.8	17.56
293.15 K, x2 = 0.3995	1243	25.01
293.15 K, x2 = 0.5001	1281.6	31
293.15 K, x2 = 0.6	1313.1	37.48
293.15 K, x2 = 0.7011	1340	48.32
293.15 K, x2 = 0.7996	1362.5	59.96
293.15 K, x2 = 0.8997	1382.3	77.23
298.15 K, x2 = 0	958.6	6.31
298.15 K, x2 = 0.1002	1059.5	8.45
298.15 K, x2 = 0.1996	1133.9	11.27
298.15 K, x2 = 0.3004	1192.5	14.79
298.15 K, x2 = 0.3995	1238.7	21.46
298.15 K, x2 = 0.5001	1277.3	25.62
298.15 K, x2 = 0.6	1308.6	30.92
298.15 K, x2 = 0.7011	1335.6	39.22
298.15 K, x2 = 0.7996	1358.2	48.21
298.15 K, x2 = 0.8997	1378	61.49
303.15 K, x2 = 0	954.8	5.53
303.15 K, x2 = 0.1002	1055.6	7.35
303.15 K, x2 = 0.1996	1129.8	9.71
303.15 K, x2 = 0.3004	1188.3	12.61
303.15 K, x2 = 0.3995	1234.4	18.54
303.15 K, x2 = 0.5001	1272.9	21.53
303.15 K, x2 = 0.6	1304.2	25.59
303.15 K, x2 = 0.7011	1331.2	32.33
303.15 K, x2 = 0.7996	1353.8	39.41
303.15 K, x2 = 0.8997	1373.5	49.74
313.15 K, x2 = 0	947.2	4.54
313.15 K, x2 = 0.1002	1047.6	5.72
313.15 K, x2 = 0.1996	1121.5	7.43
313.15 K, x2 = 0.3004	1179.9	9.44
313.15 K, x2 = 0.3995	1225.8	14.05
313.15 K, x2 = 0.5001	1264.2	15.63
313.15 K, x2 = 0.6	1295.3	18.34
313.15 K, x2 = 0.7011	1322.3	22.83
313.15 K, x2 = 0.7996	1344.8	27.42
313.15 K, x2 = 0.8997	1364.5	34.01
323.15 K, x2 = 0	939.8	3.73
323.15 K, x2 = 0.1002	1039.8	4.53
323.15 K, x2 = 0.1996	1113.4	5.86
323.15 K, x2 = 0.3004	1171.6	7.32
323.15 K, x2 = 0.3995	1217.3	10.01
323.15 K, x2 = 0.5001	1255.6	11.82
323.15 K, x2 = 0.6	1286.7	13.7
323.15 K, x2 = 0.7011	1313.6	16.83
323.15 K, x2 = 0.7996	1336	19.97
323.15 K, x2 = 0.8997	1355.6	24.42
333.15 K, x2 = 0	932.3	3.02
333.15 K, x2 = 0.1002	1031.9	3.74
333.15 K, x2 = 0.1996	1105.4	4.8
333.15 K, x2 = 0.3004	1163.3	5.87
333.15 K, x2 = 0.3995	1206.3	7.86
333.15 K, x2 = 0.5001	1246.8	9.21
333.15 K, x2 = 0.6	1277.9	10.59
333.15 K, x2 = 0.7011	1304.7	12.85
333.15 K, x2 = 0.7996	1326.7	15.09
333.15 K, x2 = 0.8997	1346.3	18.22
